Test results taken from the OPERA property sets (Mansouri et al. 2018).

Conditions: not given

Compound	boiling point [°C]	melting point [°C]	ready biodegradability	log10 Koc (L/kg)	log10 vapour pressure (mmHg)	log10 Henry constant (atm·m³/mol)	log10 Koa
ClC(c1ccccc1)(c1ccccc1)c1ccccc1	310	114	not readily biodegradable	–	–	–	–
Cc1cc(NC(N)=O)ccc1Br	–	–	–	2.37	–	–	–
Cc1cnc(C(=O)O)c[n+]1[O-]	–	178	–	–	–	–	–
CC(Cl)C(Cl)(Cl)C=O (stereo not drawn)	164	–	–	–	–	–	–
Cc1cc(Cl)ccc1N=CN(C)C	–	35	–	2.91	-3.03	–	–
C=CCCCCCCCCCCCCCCCCC	329	23	–	–	-4.42	–	–
CCC(=O)OCC1CCCO1 (stereo not drawn)	206	–	–	–	–	–	–
N#CSCCl	185	–	–	–	–	–	–
FC(F)(F)C(F)(F)I	13	–	–	–	–	–	–
CCCCc1ccncc1	209	–	–	–	–	–	–
CC(CCc1ccccc1)NCC(O)c1ccc(O)c(C(N)=O)c1 (stereo not drawn)	–	188	–	–	–	–	–
C[Si]1(C)N[Si](C)(C)N[Si](C)(C)N1	188	-10	–	–	–	–	–
CCCCCCCCCCCCCCCc1cccc(O)c1O	–	59.5	–	–	–	–	–
O=c1oc2ccccc2c(O)c1C1CC(c2ccc(-c3ccc(Br)cc3)cc2)Cc2ccccc21 (stereo not drawn)	–	230	–	–	–	–	–
COC(=O)c1sccc1N	–	65	–	–	–	–	–
COC(=O)c1ccc(Br)cc1	–	81	–	–	–	–	–
CC(C)C1(C)N=C(c2ncccc2C(=O)O)NC1=O (stereo not drawn)	–	171	–	2	–	–	–
CCOC(=O)C(NC=O)C(=O)OCC	–	48.5	–	–	–	–	–
C1=NN(c2ccccc2)CC1	273	52	–	–	–	–	–
CCC(C(=O)O)C1(O)CCCCC1 (stereo not drawn)	–	81.5	–	–	–	–	–
O=C(O)C(O)(O)C(O)(O)C(=O)O	–	114	–	–	–	–	–
Cn1cc(-c2ccccc2)c(=O)c(-c2cccc(C(F)(F)F)c2)c1	–	154	not readily biodegradable	2.85	-7.01	–	–
CCCCCCCCCCCCCCCC(=O)Cl	–	12	–	–	–	–	–
N#CC(CCc1ccc(Cl)cc1)(Cn1cncn1)c1ccccc1 (stereo not drawn)	–	125	–	–	-7.43	–	–
O=C(NCCO[N+](=O)[O-])c1cccnc1	–	92.5	–	–	–	–	–
CCCCCCCCCCCCCCCc1cccc(O)c1	–	53.5	readily biodegradable	–	–	–	–
NS(=O)(=O)c1cc(Cl)c(Cl)c(S(N)(=O)=O)c1	–	229	–	–	–	–	–

Compound	boiling point [°C]	melting point [°C]	ready biodegradability	log10 Koc (L/kg)	log10 vapour pressure (mmHg)	log10 Henry constant (atm·m³/mol)	log10 Koa
[N-]=[N+]=NCC(=O)N[C@H](CO)[C@H](O)c1ccc([N+](=O)[O-])cc1	–	107	–	–	–	–	–
CC(C)C1=CC2=C(CC1)[C@@]1(C)CCC[C@@](C)(C(=O)O)[C@@H]1CC2	–	164	–	–	–	–	–
CC(Cl)C(C)(C)Cl (stereo not drawn)	129	–	–	–	–	–	–
CC(N)CCN (stereo not drawn)	140	–	–	–	–	–	–
CC(=O)c1ccncc1	212	16	–	–	–	-7.2	–
CCSCC(C)C	134	–	–	–	–	–	–
CC(=O)CC(=O)Nc1ccc(Cl)cc1	–	132	–	–	–	–	–
C=CCc1ccc(OC(C)=O)c(OC)c1	281	30.5	–	–	-2.5	–	–
O=Cc1ccc[nH]1	218	46.5	–	–	–	–	–
CC(C)(Sc1cc(C(C)(C)C)c(O)c(C(C)(C)C)c1)Sc1cc(C(C)(C)C)c(O)c(C(C)(C)C)c1	–	125	–	–	–	–	–
CCN1CCCC1CNC(=O)c1cc(S(=O)(=O)CC)ccc1OC (stereo not drawn)	–	182	–	–	–	–	–
CC[Si](O)(CC)CC	154	–	–	–	–	–	–
O=C1C=CC(=O)c2c(Cl)cccc21	–	163	–	–	–	–	–
Cc1ccc2oc(=O)ccc2c1	304	76.5	–	–	–	–	–
CCOCCOC(C)(C)C	148	–	–	–	–	–	–
Br.CCNCC	–	219	–	–	–	–	–
Cc1csc(C)c1	141	–	–	–	–	–	–
CC1CCC2C(=O)OC(=O)C2C1 (stereo not drawn)	–	–	not readily biodegradable	–	–	–	–
COc1c(Cl)ccc(Cl)c1Cl	227	45	–	–	–	-3.54	–
CC(C)OC(=O)COc1cc(Cl)c(Cl)cc1Cl	–	45	–	–	–	–	–
Cc1cc(O)c(C(C)(C)C)cc1C(C)(C)C	282	62.1	–	–	–	–	–
CCCCCCCCCCCC(=O)OC(C)C	–	–	–	–	-2.57	–	–
Brc1cc2ccccc2c2ccccc12	–	64.5	–	–	–	–	–
CCOC(OCC)C(Cl)Cl	184	–	–	–	–	–	–
CCCCCCCCC(O)CCCCCCCC	–	61	–	–	–	–	–
C=C(C)CCCCC	119	-90	–	–	1.3	–	–
O=C(OCC1(COC(=O)c2cccnc2)CCCC(COC(=O)c2cccnc2)(COC(=O)c2cccnc2)C1O)c1cccnc1	–	178	–	–	–	–	–

Compound	boiling point [°C]	melting point [°C]	ready biodegradability	log10 Koc (L/kg)	log10 vapour pressure (mmHg)	log10 Henry constant (atm·m³/mol)	log10 Koa
CNC(=O)Oc1cccc(N=CN(C)C)c1	–	–	–	2.44	–	–	–
N#Cc1c(F)c(F)c(F)c(F)c1C#N	–	83	–	–	–	–	–
Brc1ccc2ccccc2c1	282	59	–	–	–	–	–
Cc1nnc(N)s1	–	224	–	–	–	–	–
C#CCCCCCCCCCC	215	-19	–	–	–	–	–
Clc1ccc2ccc(Cl)c(Cl)c2c1	–	–	–	–	–	–	7.5
O=[N+]([O-])c1ccc(CCc2ccc([N+](=O)[O-])cc2)cc1	–	181	–	–	–	–	–
CC(=O)N(C)C	–	–	readily biodegradable	–	–	–	–
Nc1c(Br)cc(O)c2c1C(=O)c1ccccc1C2=O	–	–	not readily biodegradable	–	–	–	–
Cc1cc2cccc(C)c2cc1C	285	–	–	–	–	–	–
O=C(c1ccccc1)c1ccccc1	–	–	not readily biodegradable	–	–	–	–
O=C(O)c1c(Cl)c(Cl)c(Cl)c(Cl)c1C(O)=Nc1cccc(Cl)c1Cl	–	198	–	–	–	–	–
C1=CCC1	2	–	–	–	–	–	–
CC1CCCCC1O (stereo not drawn)	164	–	–	–	–	-5.12	–
O=S(=O)(Cl)c1ccccc1	252	14.5	–	–	-1.24	–	–
C[N+](C)(C)CCOC(=O)CCC(=O)OCC[N+](C)(C)C.[I-].[I-]	–	244	–	–	–	–	–
COC(=O)C1=C(C)NC(C)=C(C(=O)OC)C1c1ccccc1[N+](=O)[O-]	–	173	–	–	–	–	–
CCN(C=O)CC	178	–	–	–	0.0821	–	–
O=CCCCC=O	–	–	–	–	-0.222	–	–
Cn1c(=O)cc(O)c2ccccc21	–	270	–	–	–	–	–
O=C(c1ccc(O)cc1O)c1ccc(O)cc1O	–	202	–	–	–	–	–
O=C(O)CCCCCC1NC(=O)CS1 (stereo not drawn)	–	140	–	–	–	–	–
CC1=CCC(C(C)C)C=C1 (stereo not drawn)	172	–	–	–	0.147	–	–
CCN(CC)CCNc1ccc(CO)c2sc3ccccc3c(=O)c12	–	102	–	–	–	–	–
CC/C=C\CC=O	121	–	–	–	–	–	–
Cc1cccc2cccc(C)c12	270	65	–	–	-2.32	–	–
CCCCC#N	141	-96.2	–	–	0.863	–	3.6

Compound	boiling point [°C]	melting point [°C]	ready biodegradability	log10 Koc (L/kg)	log10 vapour pressure (mmHg)	log10 Henry constant (atm·m³/mol)	log10 Koa
OCCCc1ccncc1	289	37	–	–	–	–	–
O=c1c(O)c(-c2ccc(O)c(O)c2)oc2cc(O[C@@H]3O[C@H](CO)[C@@H](O)[C@H](O)[C@H]3O)cc(O)c12	–	248	–	–	–	–	–
CCOc1ccc(Cc2nccc3cc(OCC)c(OCC)cc23)cc1OCC	–	100	–	–	–	–	–
COc1ccc(C)c(N)c1	253	47	–	–	–	–	–
CC(=O)OC(C)(C)C	97	–	–	–	1.67	–	–
CC[C@@H]1CN2CCc3c([nH]c4cccc(OC)c34)[C@H]2C[C@@H]1/C(=C\OC)C(=O)OC	–	104	–	–	–	–	–
CC(C)(C)CC(=O)OCC(=O)[C@@]1(O)CC[C@H]2[C@@H]3CCC4=CC(=O)CC[C@]4(C)[C@H]3[C@@H](O)C[C@@]21C	–	168	–	–	–	–	–
CCCC(C)C(C)CCC (stereo not drawn)	162	–	–	–	–	–	–
Clc1ccc(Oc2ccccc2)cc1Cl	–	–	–	–	-3.19	–	–
C#CCC1(OC(N)=O)CCCCC1	–	99	–	–	–	–	–
O=Cc1ccnc2ccccc12	–	51	–	–	–	–	–
CCCCOC(=O)CC(CC(=O)OCCCC)(OC(C)=O)C(=O)OCCCC	–	-80	readily biodegradable	–	–	–	–
O=C1NC(=O)c2c1cccc2[N+](=O)[O-]	–	214	–	–	–	–	–
C=CCc1ccccc1C	182	–	–	–	–	–	–
Nc1c(Cl)c(Cl)c(Cl)c(Cl)c1Cl	–	235	not readily biodegradable	4.62	–	–	–
C=C(C)[C@@H]1CC=C(C)C(=O)C1	–	–	–	–	-0.988	–	–
CCN(CC)C(=O)N1CCN(C)CC1	–	48	–	–	–	–	–
Cc1cc(-c2cc(C)c(O)c(C)c2)cc(C)c1O	–	222	–	–	–	–	–
O=C(O)c1ccccc1C1c2ccc(O)cc2Oc2cc(O)ccc21	–	126	–	–	–	–	–
CCCCCCCCCCCCC/C=C/[C@@H](O)[C@@H](N)CO	–	67	–	–	–	–	–
O=C(Nc1ccc([N+](=O)[O-])cc1Cl)c1cc(Cl)ccc1O	–	230	not readily biodegradable	3.35	-10.8	–	–
COc1cc(OC)n2nc(S(=O)(=O)Nc3c(Cl)ccc(C)c3Cl)nc2n1	–	211	–	–	–	–	–
COc1ccc(C)cc1OC	220	24	–	–	–	–	–
COc1cc(C=CCO)ccc1O	–	74	–	–	–	–	–

Same assay, conditions: fish

Compound	log10 BCF	log10 biotransformation half-life (days)
ClC(c1ccccc1)(c1ccccc1)c1ccccc1	2.63	-0.15
CC(C)C1=CC2=C(CC1)[C@@]1(C)CCC[C@@](C)(C(=O)O)[C@@H]1CC2	1.4	–
COc1c(Cl)ccc(Cl)c1Cl	2.52	–
O=C(c1ccccc1)c1ccccc1	1.08	–
Nc1c(Cl)c(Cl)c(Cl)c(Cl)c1Cl	2.71	–
